Values quoted from earlier work, collected in paper PMC4536914 (Chembiochem : a European journal of chemical biology, 2012).

Target: Plk1 PBD (HA-EGFP-Plk1 in mitotic 293A cell lysates) (Homo sapiens, UniProt P53350)
Details: previous work; ref [10]

Sequence of Plk1 PBD (HA-EGFP-Plk1 in mitotic 293A cell lysates) (P53350 whole entry): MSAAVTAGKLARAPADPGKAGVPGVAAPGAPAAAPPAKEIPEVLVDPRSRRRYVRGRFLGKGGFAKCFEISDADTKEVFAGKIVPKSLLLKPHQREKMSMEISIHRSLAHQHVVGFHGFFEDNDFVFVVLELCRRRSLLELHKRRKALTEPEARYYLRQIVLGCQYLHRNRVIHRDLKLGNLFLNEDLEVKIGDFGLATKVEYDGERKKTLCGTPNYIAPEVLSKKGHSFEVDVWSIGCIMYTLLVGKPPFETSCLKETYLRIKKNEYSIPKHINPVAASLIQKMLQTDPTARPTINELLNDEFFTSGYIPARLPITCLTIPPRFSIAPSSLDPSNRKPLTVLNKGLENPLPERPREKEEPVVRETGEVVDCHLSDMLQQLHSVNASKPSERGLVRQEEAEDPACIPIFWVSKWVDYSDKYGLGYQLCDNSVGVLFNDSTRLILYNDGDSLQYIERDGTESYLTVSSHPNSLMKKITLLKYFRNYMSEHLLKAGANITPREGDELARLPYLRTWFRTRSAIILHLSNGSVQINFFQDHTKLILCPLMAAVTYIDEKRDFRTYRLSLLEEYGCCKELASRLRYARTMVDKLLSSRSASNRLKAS

**Q.** Which “Plk1 PBD-binding affinity relative to parent peptide 1” value does the source give for LHSpT here?
**A.** Its value is “significantly less Plk1 PBD-binding affinity than the parent peptide 1”.
